# Test results as given in patent US9624170B2, “4-(piperrazin-1-yl)-pyrrolidin-2-one compounds as monoacylglycerol lipase (MAGL) inhibitors” (TAKEDA PHARMACEUTICAL COMPANY LIMITED, priority 2013, dated 2017).
# Target: T1, human MAGL (His-hMAGL) (Homo sapiens, UniProt Q99685)
# T1 construct: made in house; host or cells: Escherichia coli BL21(DE3)
# T1 sequence (Q99685 1-303): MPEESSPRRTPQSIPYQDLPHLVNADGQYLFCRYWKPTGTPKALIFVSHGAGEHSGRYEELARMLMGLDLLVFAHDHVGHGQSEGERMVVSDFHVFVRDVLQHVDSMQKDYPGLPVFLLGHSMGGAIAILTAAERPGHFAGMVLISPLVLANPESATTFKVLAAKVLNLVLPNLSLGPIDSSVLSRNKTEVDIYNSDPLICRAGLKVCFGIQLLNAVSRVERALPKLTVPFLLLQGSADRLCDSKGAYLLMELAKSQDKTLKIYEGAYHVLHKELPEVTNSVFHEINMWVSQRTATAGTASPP
# Test: Measurement of MAGL inhibitory activity by mass spectrometry
# Type: biochemical
# Conditions: MAGL inhibitory rate, test compound 10 μM, His-hMAGL, substrate 2-arachidonylglycerol, RapidFire-mass spectrometry
# Summary of the method: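 His-tagged human MAGL was reacted with 150 μM 2-arachidonylglycerol substrate (stock, added by 5 μL) for 10 min at room temperature, then stopped with formic acid. Arachidonic acid product was quantified by RapidFire–triple-quadrupole MS in negative SRM mode, corrected by arachidonic acid-d8, and converted to percent inhibition.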
row,SMILES,inhibition at 10 µM
1,"O=C(c1nccs1)N1CCN(C2CC(=O)N(c3cccc(-c4cccc5ccnn45)c3)C2)CC1 (stereo not shown) [Example 338, 1-(3-(pyrazolo[1,5-a]pyridin-7-yl)phenyl)-4-(4-(1,3-thiazol-2-ylcarbonyl)piperazin-1-yl)pyrrolidin-2-one]",98%
2,"COc1nccc(C)c1-c1cccc(N2CC(N3CCN(C(=O)c4nccs4)CC3)CC2=O)c1 (stereo not shown) [Example 339, 1-(3-(2-methoxy-4-methylpyridin-3-yl)phenyl)-4-(4-(1,3-thiazol-2-ylcarbonyl)piperazin-1-yl)pyrrolidin-2-one]",100%
3,"O=C(c1nccs1)N1CCN(C2CC(=O)N(c3cccc(-c4cccc5nccn45)c3)C2)CC1 (stereo not shown) [Example 340, 1-(3-(imidazo[1,2-a]pyridin-5-yl)phenyl)-4-(4-(1,3-thiazol-2-ylcarbonyl)piperazin-1-yl)pyrrolidin-2-one]",99%
4,"O=C(c1nccs1)N1CCN(C2CC(=O)N(c3cccc(-c4ccsc4C(F)(F)F)c3)C2)CC1 (stereo not shown) [Example 341, 4-(4-(1,3-thiazol-2-ylcarbonyl)piperazin-1-yl)-1-(3-(2-(trifluoromethyl)-3-thienyl)phenyl)pyrrolidin-2-one]",101%
5,"O=C(c1nccs1)N1CCN(C2CC(=O)N(c3cccc(-c4cccn5ccnc45)c3)C2)CC1 (stereo not shown) [Example 342, 1-(3-(imidazo[1,2-a]pyridin-8-yl)phenyl)-4-(4-(1,3-thiazol-2-ylcarbonyl)piperazin-1-yl)pyrrolidin-2-one]",100%
6,"COc1nccc2[nH]cc(-c3cccc(N4CC(N5CCN(C(=O)c6nccs6)CC5)CC4=O)c3)c12 (stereo not shown) [Example 343, 1-(3-(4-methoxy-1H-pyrrolo[3,2-c]pyridin-3-yl)phenyl)-4-(4-(1,3-thiazol-2-ylcarbonyl)piperazin-1-yl)pyrrolidin-2-one]",101%
7,"O=C(c1nccs1)N1CCN(C2CC(=O)N(c3cccc(-c4c(F)cccc4Cl)c3)C2)CC1 (stereo not shown) [Example 344, 1-(2′-chloro-6′-fluorobiphenyl-3-yl)-4-(4-(1,3-thiazol-2-ylcarbonyl)piperazin-1-yl)pyrrolidin-2-one]",98%
8,"Cc1cn2c(-c3cccc(N4CC(N5CCN(C(=O)c6nccs6)CC5)CC4=O)c3)cccc2n1 (stereo not shown) [Example 345, 1-(3-(2-methylimidazo[1,2-a]pyridin-5-yl)phenyl)-4-(4-(1,3-thiazol-2-ylcarbonyl)piperazin-1-yl)pyrrolidin-2-one]",97%
9,"O=C(c1nccs1)N1CCN(C2CC(=O)N(c3cccc(-c4ccnc5sccc45)c3)C2)CC1 (stereo not shown) [Example 346, 4-(4-(1,3-thiazol-2-ylcarbonyl)piperazin-1-yl)-1-(3-(thieno[2,3-b]pyridin-4-yl)phenyl)pyrrolidin-2-one]",99%
10,"O=C(c1nccs1)N1CCN(C2CC(=O)N(c3cccc(-c4csc5ncccc45)c3)C2)CC1 (stereo not shown) [Example 347, 4-(4-(1,3-thiazol-2-ylcarbonyl)piperazin-1-yl)-1-(3-(thieno[2,3-b]pyridin-3-yl)phenyl)pyrrolidin-2-one]",100%
11,"O=C1Cc2c(-c3cccc(N4CC(N5CCN(C(=O)c6nccs6)CC5)CC4=O)c3)ccnc2N1 (stereo not shown) [Example 348, 4-(3-(2-oxo-4-(4-(1,3-thiazol-2-ylcarbonyl)piperazin-1-yl)pyrrolidin-1-yl)phenyl)-1,3-dihydro-2H-pyrrolo[2,3-b]pyridin-2-one]",99%
12,"O=C(c1nccs1)N1CCN(C2CC(=O)N(c3cccc(-c4nc(C(F)(F)F)cs4)c3)C2)CC1 (stereo not shown) [Example 349, 4-(4-(1,3-thiazol-2-ylcarbonyl)piperazin-1-yl)-1-(3-(4-(trifluoromethyl)-1,3-thiazol-2-yl)phenyl)pyrrolidin-2-one]",98%
13,"O=C(c1nccs1)N1CCN(C2CC(=O)N(c3cc(F)cc(-c4ccccc4Cl)c3)C2)CC1 (stereo not shown) [Example 350, 1-(2′-chloro-5-fluorobiphenyl-3-yl)-4-(4-(1,3-thiazol-2-ylcarbonyl)piperazin-1-yl)pyrrolidin-2-one]",104%
14,"COc1c(-c2cccc(N3CC(N4CCN(C(=O)c5nccs5)CC4)CC3=O)c2)ccc2c1NC(=O)C2 (stereo not shown) [Example 351, 7-Methoxy-6-(3-(2-oxo-4-(4-(1,3-thiazol-2-ylcarbonyl)piperazin-1-yl)pyrrolidin-1-yl)phenyl)-1,3-dihydro-2H-indol-2-one]",100%

# Next, values leading:
row,inhibition at 10 µM,SMILES
1,102%,"Cc1ccnc(C)c1-c1cccc(N2CC(N3CCN(C(=O)c4nccs4)CC3)CC2=O)c1 (stereo not shown) [Example 352, 1-(3-(2,4-dimethylpyridin-3-yl)phenyl)-4-(4-(1,3-thiazol-2-ylcarbonyl)piperazin-1-yl)pyrrolidin-2-one]"
2,101%,"O=C(c1nccs1)N1CCN(C2CC(=O)N(c3cc(-c4ccccc4F)c4[nH]ccc4c3)C2)CC1 (stereo not shown) [Example 353, 1-(7-(2-Fluorophenyl)-1H-indol-5-yl)-4-(4-(1,3-thiazol-2-ylcarbonyl)piperazin-1-yl)pyrrolidin-2-one]"
3,101%,"COc1ccccc1-c1cc(N2CC(N3CCN(C(=O)c4nccs4)CC3)CC2=O)cc2cc[nH]c12 (stereo not shown) [Example 354, 1-(7-(2-methoxyphenyl)-1H-indol-5-yl)-4-(4-(1,3-thiazol-2-ylcarbonyl)piperazin-1-yl)pyrrolidin-2-one]"
4,98%,"COc1ccccc1-c1cc(N2CC(N3CCN(C(=O)c4nccs4)CC3)CC2=O)cc2cn[nH]c12 (stereo not shown) [Example 355, 1-(7-(2-methoxyphenyl)-1H-indazol-5-yl)-4-(4-(1,3-thiazol-2-ylcarbonyl)piperazin-1-yl)pyrrolidin-2-one]"
5,98%,"Cc1cc(Cl)ccc1-c1cccc(N2CC(N3CCN(C(=O)c4nccs4)CC3)CC2=O)c1 (stereo not shown) [Example 356, 1-(4′-chloro-2′-methylbiphenyl-3-yl)-4-(4-(1,3-thiazol-2-ylcarbonyl)piperazin-1-yl)pyrrolidin-2-one]"
6,101%,"Cc1cc(Cl)ccc1-c1cc(F)cc(N2CC(N3CCN(C(=O)c4nccs4)CC3)CC2=O)c1 (stereo not shown) [Example 357, 1-(4′-chloro-5-fluoro-2′-methylbiphenyl-3-yl)-4-(4-(1,3-thiazol-2-ylcarbonyl)piperazin-1-yl)pyrrolidin-2-one]"
7,102%,"Cc1cnc(-n2ccc3cc(N4CC(N5CCN(C(=O)c6nccs6)CC5)CC4=O)ccc32)nc1 (stereo not shown) [Example 358, 1-(1-(5-methylpyrimidin-2-yl)-1H-indol-5-yl)-4-(4-(1,3-thiazol-2-ylcarbonyl)piperazin-1-yl)pyrrolidin-2-one]"
8,96%,"C[C@@H]1CN(C(=O)c2nccs2)CCN1C1CC(=O)N(c2ccc3c(ccn3-c3ccc(F)cc3)c2)C1 (stereo partly drawn) [Example 359, 1-(1-(4-fluorophenyl)-1H-indol-5-yl)-4-((2R)-2-methyl-4-(1,3-thiazol-2-ylcarbonyl)piperazin-1-yl)pyrrolidin-2-one]"
9,92%,"O=C1CC(N2CCN(c3ncccn3)CC2)CN1c1ccc2c(ccn2-c2ccnc(C(F)(F)F)c2)c1 (stereo not shown) [Example 361, 4-(4-(pyrimidin-2-yl)piperazin-1-yl)-1-(1-(2-(trifluoromethyl)pyridin-4-yl)-1H-indol-5-yl)pyrrolidin-2-one]"
10,92%,"Cc1nccnc1-c1cccc(N2CC(N3CCN(C(=O)c4nccs4)CC3)CC2=O)c1 (stereo not shown) [Example 362, 1-(3-(3-methylpyrazin-2-yl)phenyl)-4-(4-(1,3-thiazol-2-ylcarbonyl)piperazin-1-yl)pyrrolidin-2-one]"
11,96%,"C[C@H]1CN(C2CC(=O)N(c3ccc4c(ccn4-c4ccc(F)cc4)c3)C2)CCN1C(=O)c1nccs1 (stereo partly drawn) [Example 363, 1-(1-(4-fluorophenyl)-1H-indol-5-yl)-4-((3S)-3-methyl-4-(1,3-thiazol-2-ylcarbonyl)piperazin-1-yl)pyrrolidin-2-one]"
12,98%,"O=C(c1nccs1)N1CCN(C2CC(=O)N(c3ccc4c(c3)CCN4c3ccnc(C(F)(F)F)c3)C2)CC1 (stereo not shown) [Example 365, 4-(4-(1,3-thiazol-2-ylcarbonyl)piperazin-1-yl)-1-(1-(2-(trifluoromethyl)pyridin-4-yl)-2,3-dihydro-1H-indol-5-yl)pyrrolidin-2-one]"
13,100%,"O=C(c1nccs1)N1CCN(C2CC(=O)N(c3sc4cc(F)ccc4c3Cl)C2)CC1 (stereo not shown) [Example 366, 1-(3-Chloro-6-fluoro-1-benzothiophen-2-yl)-4-(4-(1,3-thiazol-2-ylcarbonyl)piperazin-1-yl)pyrrolidin-2-one]"
14,97%,"Cc1ccc(-c2cccc(N3CC(N4CCN(C(=O)c5nccs5)CC4)CC3=O)c2)c(C)n1 (stereo not shown) [Example 368, 1-(3-(2,6-dimethylpyridin-3-yl)phenyl)-4-(4-(1,3-thiazol-2-ylcarbonyl)piperazin-1-yl)pyrrolidin-2-one]"
15,101%,"O=C(c1nccs1)N1CCN(C2CC(=O)N(c3cccc(-c4cnccc4Cl)c3)C2)CC1 (stereo not shown) [Example 370, 1-(3-(4-chloropyridin-3-yl)phenyl)-4-(4-(1,3-thiazol-2-ylcarbonyl)piperazin-1-yl)pyrrolidin-2-one]"
16,104%,"O=C(c1nccs1)N1CCN(C2CC(=O)N(c3cccc(-c4cnccc4C(F)(F)F)c3)C2)CC1 (stereo not shown) [Example 371, 4-(4-(1,3-thiazol-2-ylcarbonyl)piperazin-1-yl)-1-(3-(4-(trifluoromethyl)pyridin-3-yl)phenyl)pyrrolidin-2-one]"
17,101%,"CC(C)(C)OC(=O)N1CCc2cc(N3CC(N4CCN(C(=O)c5nccs5)CC4)CC3=O)ccc21 (stereo not shown) [Example 372, tert-Butyl 5-(2-oxo-4-(4-(1,3-thiazol-2-ylcarbonyl)piperazin-1-yl)pyrrolidin-1-yl)indoline-1-carboxylate]"
